Source: US20240217977A1, “DIAZEPANONE-FUSED PYRIMIDINE COMPOUNDS, COMPOSITIONS AND MEDICINAL APPLICATIONS THEREOF” (Blueprint Medicines Corporation, priority 2021, published 2024)

Columns and labels:
Type in all cases: cell-based
[1] = molecular target: HER2 (A775_G775insYVMA) expressing Ba/F3 stable cell line (Homo sapiens, UniProt P04626, DUP772-775, cells depend on it); assay: Cellular proliferation (Alamar Blue) assay, HER2 (A775_G775insYVMA) Ba/F3; conditions: 72 hr incubation, read-out: YVMA IC50
HER2 (A775_G775insYVMA) expressing Ba/F3 stable cell line, sequence (P04626 with tags, fused parts or gaps DUP772-775): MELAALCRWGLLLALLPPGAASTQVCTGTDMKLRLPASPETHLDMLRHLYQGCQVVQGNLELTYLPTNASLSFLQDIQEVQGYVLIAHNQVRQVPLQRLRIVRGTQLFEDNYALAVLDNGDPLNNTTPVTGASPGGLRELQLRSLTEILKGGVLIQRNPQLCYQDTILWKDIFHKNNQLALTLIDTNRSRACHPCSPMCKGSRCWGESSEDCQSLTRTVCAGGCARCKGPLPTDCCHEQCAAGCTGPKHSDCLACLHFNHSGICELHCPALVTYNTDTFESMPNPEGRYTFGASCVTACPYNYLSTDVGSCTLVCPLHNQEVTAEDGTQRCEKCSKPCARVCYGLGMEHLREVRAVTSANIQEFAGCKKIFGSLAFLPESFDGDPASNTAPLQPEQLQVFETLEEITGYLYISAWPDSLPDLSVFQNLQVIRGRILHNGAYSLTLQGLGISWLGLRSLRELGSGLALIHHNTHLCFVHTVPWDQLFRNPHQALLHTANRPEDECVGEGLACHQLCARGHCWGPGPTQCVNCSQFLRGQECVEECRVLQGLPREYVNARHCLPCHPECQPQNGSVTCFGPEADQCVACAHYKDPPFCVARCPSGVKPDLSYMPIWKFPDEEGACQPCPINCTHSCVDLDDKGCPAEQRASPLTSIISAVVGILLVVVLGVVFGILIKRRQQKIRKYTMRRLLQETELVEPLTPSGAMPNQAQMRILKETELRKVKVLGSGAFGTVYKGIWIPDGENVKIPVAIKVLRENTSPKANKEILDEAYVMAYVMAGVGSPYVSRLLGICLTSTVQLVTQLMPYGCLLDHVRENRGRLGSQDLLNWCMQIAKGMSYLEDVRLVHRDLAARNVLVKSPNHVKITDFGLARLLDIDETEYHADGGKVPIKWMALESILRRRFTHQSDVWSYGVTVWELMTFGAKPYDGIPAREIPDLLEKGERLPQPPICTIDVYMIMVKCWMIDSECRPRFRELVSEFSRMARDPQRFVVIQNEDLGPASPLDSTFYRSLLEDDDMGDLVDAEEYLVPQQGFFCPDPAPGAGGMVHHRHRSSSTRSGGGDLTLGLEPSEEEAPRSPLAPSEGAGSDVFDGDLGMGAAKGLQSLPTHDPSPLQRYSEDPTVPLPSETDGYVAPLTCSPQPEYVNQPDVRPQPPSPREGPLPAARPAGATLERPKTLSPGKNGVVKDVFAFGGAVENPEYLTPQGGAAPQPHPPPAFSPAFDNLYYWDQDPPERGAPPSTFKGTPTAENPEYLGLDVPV
Procedure: (§1) Example 2: Cellular Proliferation (Alamar Blue) Assays
(§2) • 1. EGFR(D770_N771insSVD) expressing Ba/F3 stable cell line • 2. EGFR (A767_dupASV) expressing Ba/F3 stable cell line • 3. A431 cells • 4. EGFR (H773insNPH) expressing Ba/F3 stable cell line • 5. HER2 (A775_G775insYVMA) expressing Ba/F3 stable cell line
(§3) • 1. Seed cells at 5000 for A431 and 15,000 cells for Ba/F3 in 100 μL/well in complete media (for A431: DMEM with 10% FBS and for Ba/F3 cells: RPMI with 10% FBS) in • 96-well tissue culture plate. Leave outer wells without cells for background measurements. Incubate at 37 degree Celsius in 5% C02 humidified incubator for 16-18 hours. • 2. Add 0.025 ml of 5× concentration compound dilution or DMSO control. Final compound concentration range is 10-0.0005 μM prepared in 3-fold serial dilutions. Incubate for 72 hr at 37 degree Celsius in 5% CO2 humidified incubator. • 3. Add 0.0125 ml Alamar Blue™ reagent to each well with multi-channel pipette and tap gently on each side of the plate to mix. Incubate for 3 hours at 37 degree Celsius in 5% CO2 humidified incubator. • 4. Read plates on fluorescence reader (Tecan Spark Control, Device: Spark, Serial #: 1801006040) at 540 nm excitation, 590 nm emission wavelength. • 5. Data analysis was performed using XLfit 5.5.0.5.

[2] = molecular target: EGFR (H773insNPH) expressing Ba/F3 stable cell line (Homo sapiens, UniProt P00533, DUP771-773, cells depend on it); assay: Cellular proliferation (Alamar Blue) assay, EGFR (H773insNPH) Ba/F3; conditions: 72 hr incubation, read-out: NPH IC50
EGFR (H773insNPH) expressing Ba/F3 stable cell line, sequence (P00533 with tags, fused parts or gaps DUP771-773): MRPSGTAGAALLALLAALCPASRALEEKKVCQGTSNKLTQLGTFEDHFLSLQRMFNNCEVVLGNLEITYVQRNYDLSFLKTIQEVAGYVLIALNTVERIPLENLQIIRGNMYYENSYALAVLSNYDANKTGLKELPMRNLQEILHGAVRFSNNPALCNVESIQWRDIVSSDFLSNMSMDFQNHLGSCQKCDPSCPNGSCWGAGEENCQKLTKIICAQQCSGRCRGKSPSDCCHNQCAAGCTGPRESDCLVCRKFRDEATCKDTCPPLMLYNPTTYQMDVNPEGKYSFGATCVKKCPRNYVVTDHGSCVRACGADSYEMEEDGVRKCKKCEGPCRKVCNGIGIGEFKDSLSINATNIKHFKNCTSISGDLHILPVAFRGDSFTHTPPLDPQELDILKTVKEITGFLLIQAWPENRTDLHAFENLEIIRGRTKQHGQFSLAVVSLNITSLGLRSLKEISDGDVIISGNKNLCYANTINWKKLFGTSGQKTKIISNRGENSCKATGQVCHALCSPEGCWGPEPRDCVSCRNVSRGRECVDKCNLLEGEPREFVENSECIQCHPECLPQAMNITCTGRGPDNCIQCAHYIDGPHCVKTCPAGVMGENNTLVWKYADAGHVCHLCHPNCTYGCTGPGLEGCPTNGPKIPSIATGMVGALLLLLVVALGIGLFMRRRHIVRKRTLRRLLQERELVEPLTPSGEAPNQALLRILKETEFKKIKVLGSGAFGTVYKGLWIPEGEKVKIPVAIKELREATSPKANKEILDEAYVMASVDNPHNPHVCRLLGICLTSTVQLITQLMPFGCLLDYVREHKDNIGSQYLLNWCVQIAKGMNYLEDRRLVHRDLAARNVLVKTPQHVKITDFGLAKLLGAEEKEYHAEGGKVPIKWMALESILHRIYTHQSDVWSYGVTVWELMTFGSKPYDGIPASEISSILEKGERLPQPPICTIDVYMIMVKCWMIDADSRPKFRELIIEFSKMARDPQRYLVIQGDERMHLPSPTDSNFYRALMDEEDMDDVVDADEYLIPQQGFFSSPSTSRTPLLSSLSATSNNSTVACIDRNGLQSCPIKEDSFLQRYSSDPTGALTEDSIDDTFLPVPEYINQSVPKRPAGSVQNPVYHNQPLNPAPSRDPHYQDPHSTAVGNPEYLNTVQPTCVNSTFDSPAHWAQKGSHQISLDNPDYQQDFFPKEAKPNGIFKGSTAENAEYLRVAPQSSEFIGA
Procedure: as §1, §2, §3

[3] = molecular target: EGFR(D770_N771insSVD) expressing Ba/F3 stable cell line (Homo sapiens, UniProt P00533, DUP768-770, cells depend on it); assay: Cellular proliferation (Alamar Blue) assay, EGFR(D770_N771insSVD) Ba/F3; conditions: 72 hr incubation, read-out: D770 IC50
EGFR(D770_N771insSVD) expressing Ba/F3 stable cell line, sequence (P00533 with tags, fused parts or gaps DUP768-770): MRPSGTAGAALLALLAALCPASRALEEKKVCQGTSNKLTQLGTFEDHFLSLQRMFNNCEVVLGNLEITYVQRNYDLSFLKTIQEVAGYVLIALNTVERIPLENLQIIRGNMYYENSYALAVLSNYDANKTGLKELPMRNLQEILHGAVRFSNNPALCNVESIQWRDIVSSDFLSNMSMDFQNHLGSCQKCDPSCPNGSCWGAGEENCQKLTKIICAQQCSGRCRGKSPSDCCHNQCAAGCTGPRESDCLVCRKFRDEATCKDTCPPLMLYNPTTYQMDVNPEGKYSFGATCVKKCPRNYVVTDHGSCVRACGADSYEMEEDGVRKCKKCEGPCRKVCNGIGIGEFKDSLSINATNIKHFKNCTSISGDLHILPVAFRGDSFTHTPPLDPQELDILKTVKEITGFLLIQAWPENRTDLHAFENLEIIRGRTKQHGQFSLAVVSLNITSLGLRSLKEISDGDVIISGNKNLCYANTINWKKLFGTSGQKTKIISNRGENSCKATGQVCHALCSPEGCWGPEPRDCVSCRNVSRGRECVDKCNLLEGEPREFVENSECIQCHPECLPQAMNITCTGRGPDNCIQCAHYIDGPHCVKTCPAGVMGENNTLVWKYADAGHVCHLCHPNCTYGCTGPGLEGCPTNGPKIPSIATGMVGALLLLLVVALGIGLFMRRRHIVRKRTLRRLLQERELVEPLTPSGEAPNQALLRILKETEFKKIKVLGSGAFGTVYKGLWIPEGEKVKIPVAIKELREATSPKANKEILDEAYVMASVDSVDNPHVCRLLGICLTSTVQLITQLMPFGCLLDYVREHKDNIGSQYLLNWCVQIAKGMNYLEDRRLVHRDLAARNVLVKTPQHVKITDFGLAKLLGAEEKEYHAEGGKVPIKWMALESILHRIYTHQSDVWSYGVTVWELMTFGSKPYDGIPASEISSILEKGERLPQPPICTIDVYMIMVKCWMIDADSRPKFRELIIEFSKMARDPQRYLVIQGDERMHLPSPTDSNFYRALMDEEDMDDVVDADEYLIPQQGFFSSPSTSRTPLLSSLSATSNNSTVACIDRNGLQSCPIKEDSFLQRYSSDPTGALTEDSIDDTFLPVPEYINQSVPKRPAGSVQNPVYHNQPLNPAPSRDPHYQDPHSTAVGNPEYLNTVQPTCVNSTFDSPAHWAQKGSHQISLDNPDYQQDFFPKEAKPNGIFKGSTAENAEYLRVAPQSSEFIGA
Procedure: as §1, §2, §3

A431 cells = assay: Cellular proliferation (Alamar Blue) assay, A431 cells; conditions: Homo sapiens, A-431, 72 hr incubation
Procedure: as §1, §2, §3

[4] = molecular target: EGFR (A767_dupASV) expressing Ba/F3 stable cell line (Homo sapiens, UniProt P00533, DUP767-769, cells depend on it); assay: Cellular proliferation (Alamar Blue) assay, EGFR (A767_dupASV) Ba/F3; conditions: 72 hr incubation, read-out: A767 IC50
EGFR (A767_dupASV) expressing Ba/F3 stable cell line, sequence (P00533 with tags, fused parts or gaps DUP767-769): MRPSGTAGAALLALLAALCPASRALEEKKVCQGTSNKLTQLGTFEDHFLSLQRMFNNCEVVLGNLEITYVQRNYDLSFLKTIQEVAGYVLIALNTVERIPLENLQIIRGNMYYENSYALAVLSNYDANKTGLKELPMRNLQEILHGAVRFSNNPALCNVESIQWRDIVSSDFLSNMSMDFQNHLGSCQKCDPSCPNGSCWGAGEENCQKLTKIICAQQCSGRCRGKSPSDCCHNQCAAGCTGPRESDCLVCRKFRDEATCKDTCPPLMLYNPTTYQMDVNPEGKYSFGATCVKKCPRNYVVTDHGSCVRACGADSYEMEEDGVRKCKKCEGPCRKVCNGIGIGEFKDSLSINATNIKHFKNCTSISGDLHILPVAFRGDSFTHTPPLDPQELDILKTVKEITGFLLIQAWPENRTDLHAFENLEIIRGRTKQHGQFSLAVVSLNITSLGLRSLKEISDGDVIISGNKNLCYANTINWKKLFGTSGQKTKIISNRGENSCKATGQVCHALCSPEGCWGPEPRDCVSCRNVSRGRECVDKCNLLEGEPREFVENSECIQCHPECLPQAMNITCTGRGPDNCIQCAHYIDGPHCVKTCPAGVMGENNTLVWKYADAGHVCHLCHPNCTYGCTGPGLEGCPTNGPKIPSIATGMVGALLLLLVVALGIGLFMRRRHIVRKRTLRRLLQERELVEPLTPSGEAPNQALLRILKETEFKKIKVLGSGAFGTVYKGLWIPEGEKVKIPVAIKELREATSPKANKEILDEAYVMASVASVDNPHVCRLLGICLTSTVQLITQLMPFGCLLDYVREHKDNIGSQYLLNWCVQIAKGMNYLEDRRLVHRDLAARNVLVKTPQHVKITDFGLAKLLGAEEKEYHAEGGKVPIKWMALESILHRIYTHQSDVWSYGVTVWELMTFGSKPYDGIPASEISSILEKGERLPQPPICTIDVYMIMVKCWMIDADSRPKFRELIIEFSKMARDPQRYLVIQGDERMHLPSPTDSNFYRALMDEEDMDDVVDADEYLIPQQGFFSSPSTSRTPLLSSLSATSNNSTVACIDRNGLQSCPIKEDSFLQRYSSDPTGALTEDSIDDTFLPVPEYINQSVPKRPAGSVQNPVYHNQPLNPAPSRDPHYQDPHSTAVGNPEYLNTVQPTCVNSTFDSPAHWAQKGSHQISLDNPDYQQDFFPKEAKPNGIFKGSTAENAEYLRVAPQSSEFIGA
Procedure: as §1, §2, §3

Row | Compound | GI50 [1] | GI50 [2] | GI50 [3] | IC50 (A431 cells) | GI50 [4]
1 | C=CC(=O)Nc1cccc(N2C(=O)N(c3ccccc3)CCc3cnc(Nc4ccc(N5CCN(C)CC5)cc4)nc32)c1 [Compound 37, N-(3-(2-((4-(4-methylpiperazin-1-yl)phenyl)amino)-8-oxo-7-phenyl-5,6,7,8-tetrahydro-9H-pyrimido[4,5-d][1,3]diazepin-9-yl)phenyl)acrylamide] | 138 nM | 100 nM | 89 nM | 7 nM | 38 nM
2 | C=CC(=O)Nc1cccc(N2C(=O)N(Cc3ccccc3)CCc3cnc(Nc4ccc(F)cc4)nc32)c1 [Compound 18, N-(3-(7-benzyl-2-((4-fluorophenyl)amino)-8-oxo-5,6,7,8-tetrahydro-9H-pyrimido[4,5-d][1,3]diazepin-9-yl)phenyl)acrylamide] | 31 nM | 152 nM | 45 nM | 64 nM | 55 nM
3 | C=CC(=O)Nc1cccc(N2C(=O)N(Cc3ccccc3)CCc3cnc(Nc4ccc(N5CCN(C)CC5)cc4OC)nc32)c1 [Compound 14, N-(3-(7-benzyl-2-((2-methoxy-4-(4-methylpiperazin-1-yl)phenyl)amino)-8-oxo-5,6,7,8-tetrahydro-9H-pyrimido[4,5-d][1,3]diazepin-9-yl)phenyl)acrylamide] | 15 nM | 32 nM | 38 nM | 34 nM | 33 nM
4 | CN(C)C/C=C/C(=O)Nc1cccc(N2C(=O)N(Cc3ccccc3)CCc3cnc(Nc4cn(C)nc4Cl)nc32)c1 [Compound 1, (E)-N-(3-(7-benzyl-2-((3-chloro-1-methyl-1H-pyrazol-4-yl)amino)-8-oxo-5,6,7,8-tetrahydro-9H-pyrimido[4,5-d][1,3]diazepin-9-yl)phenyl)-4-(dimethylamino)but-2-enamide] | 31 nM | 86 nM | 105 nM | 132 nM | 54 nM
5 | Cn1cc(Nc2ncc3c(n2)N(c2cccc(NC(=O)/C=C/CF)c2)C(=O)N(c2ccccc2)CC3)c(Cl)n1 [Compound 33, (E)-N-(3-(2-((3-chloro-1-methyl-1H-pyrazol-4-yl)amino)-8-oxo-7-phenyl-5,6,7,8-tetrahydro-9H-pyrimido[4,5-d][1,3]diazepin-9-yl)phenyl)-4-fluorobut-2-enamide] | 602 nM | 131 nM | 239 nM | > 10000 nM | 128 nM
6 | C=CC(=O)Nc1cccc(N2C(=O)N(c3ccccc3)CCc3cnc(Nc4cccnc4F)nc32)c1 [Compound 43, N-(3-{12-[(2-fluoropyridin-3-yl)amino]-8-oxo-7-phenyl-5H,6H,7H,8H,9H-pyrimido[4,5-d][1,3]diazepin-9-yl}phenyl)prop-2-enamide] | 1360 nM | 193 nM | 239 nM | > 10000 nM | 146 nM
7 | Cn1cc(Nc2ncc3c(n2)N(c2cccc(NC(=O)/C=C/CN4CCOCC4)c2)C(=O)N(Cc2ccccc2)CC3)c(Cl)n1 [Compound 10, (E)-N-(3-(7-benzyl-2-((3-chloro-1-methyl-1H-pyrazol-4-yl)amino)-8-oxo-5,6,7,8-tetrahydro-9H-pyrimido[4,5-d][1,3]diazepin-9-yl)phenyl)-4-morpholinobut-2-enamide] | 20 nM | 94 nM | 47 nM | 8 nM | 43 nM
8 | Cn1cc(Nc2ncc3c(n2)N(c2cccc(NC(=O)/C=C/CF)c2)C(=O)N(Cc2ccccc2)CC3)c(Cl)n1 [Compound 6, (E)-N-(3-(7-benzyl-2-((3-chloro-1-methyl-1H-pyrazol-4-yl)amino)-8-oxo-5,6,7,8-tetrahydro-9H-pyrimido[4,5-d][1,3]diazepin-9-yl)phenyl)-4-fluorobut-2-enamide] | 10 nM | 32 nM | 12 nM | 8 nM | 9 nM
9 | C=CC(=O)Nc1cccc(N2C(=O)N(c3ccccc3)CCc3cnc(Nc4cn(C)nc4F)nc32)c1 [Compound 35, N-(3-(2-((3-fluoro-1-methyl-1H-pyrazol-4-yl)amino)-8-oxo-7-phenyl-5,6,7,8-tetrahydro-9H-pyrimido[4,5-d][1,3]diazepin-9-yl)phenyl)acrylamide] | 1060 nM | 138 nM | 122 nM | > 10000 nM | 117 nM
10 | C=CC(=O)Nc1cccc(N2C(=O)N(Cc3ccccc3)CCc3cnc(Nc4cn(C5CCN(C)CC5)nc4Cl)nc32)c1 [Compound 7, N-(3-(7-benzyl-2-((3-chloro-1-(1-methylpiperidin-4-yl)-1H-pyrazol-4-yl)amino)-8-oxo-5,6,7,8-tetrahydro-9H-pyrimido[4,5-d][1,3]diazepin-9-yl)phenyl)acrylamide] | 24 nM | 41 nM | 36 nM | 2 nM | 27 nM
11 | C=CC(=O)Nc1cccc(N2C(=O)N(Cc3ccccc3)CCc3cnc(Nc4ccc(N5CCN(C)CC5)nc4)nc32)c1 [Compound 16, N-(3-(7-benzyl-2-((6-(4-methylpiperazin-1-yl)pyridin-3-yl)amino)-8-oxo-5,6,7,8-tetrahydro-9H-pyrimido[4,5-d][1,3]diazepin-9-yl)phenyl)acrylamide] | 25 nM | 32 nM | 39 nM | 9 nM | 25 nM
12 | C=CC(=O)Nc1cccc(N2C(=O)N(c3ccccc3)CCc3cnc(Nc4cn(C)nc4Cl)nc32)c1 [Compound 29, N-(3-{2-[(3-chloro-1-methyl-1H-pyrazol-4-yl)amino]-8-oxo-7-phenyl-5H,6H,7H,8H,9H-pyrimido[4,5-d][1,3]diazepin-9-yl}phenyl)prop-2-enamide] | 67 nM | 25 nM | 45 nM | 16 nM | 36 nM
13 | C=CC(=O)Nc1cccc(N2C(=O)N(Cc3ccccc3)CCc3cnc(Nc4cn(C)nc4F)nc32)c1 [Compound 11, N-(3-(7-benzyl-2-((3-fluoro-1-methyl-1H-pyrazol-4-yl)amino)-8-oxo-5,6,7,8-tetrahydro-9H-pyrimido[4,5-d][1,3]diazepin-9-yl)phenyl)acrylamide] | 7 nM | 31 nM | 10 nM | 5 nM | 11 nM
14 | C=CC(=O)Nc1cccc(N2C(=O)N(Cc3ccccc3)CCc3cnc(Nc4cn(C)nc4Cl)nc32)c1 [Compound 5, N-(3-(7-benzyl-2-((3-chloro-1-methyl-1H-pyrazol-4-yl)amino)-8-oxo-5,6,7,8-tetrahydro-9H-pyrimido[4,5-d][1,3]diazepin-9-yl)phenyl)acrylamide] | 12 nM | 7 nM | 10 nM | 2 nM | 12 nM
15 | C/C=C/C(=O)Nc1cccc(N2C(=O)N(Cc3ccccc3)CCc3cnc(Nc4cn(C)nc4Cl)nc32)c1 [Compound 2, (E)-N-(3-(7-benzyl-2-((3-chloro-1-methyl-1H-pyrazol-4-yl)amino)-8-oxo-5,6,7,8-tetrahydro-9H-pyrimido[4,5-d][1,3]diazepin-9-yl)phenyl)but-2-enamide] | 243 nM |  | 249 nM | > 10000 nM | 261 nM
16 | C=CC(=O)Nc1cccc(N2C(=O)N(C3CC3)CCc3cnc(Nc4cn(C)nc4Cl)nc32)c1 [Compound 20, N-(3-(2-((3-chloro-1-methyl-1H-pyrazol-4-yl)amino)-7-cyclopropyl-8-oxo-5,6,7,8-tetrahydro-9H-pyrimido[4,5-d][1,3]diazepin-9-yl)phenyl)acrylamide] | 895 nM |  | 320 nM | > 10000 nM | 225 nM
